Entries after “also recorded” stand apart in the source; their conditions may differ. Read-outs that look alike come from different tables or passages of the source.
Legend:
[1] = system: esterase BesA; test: BesA-catalyzed hydrolysis of apo siderophores followed by HPLC; assay type: biochemical, B. cereus ATCC 14579; settings: 72 nM enzyme, 64 μM siderophore
[2] = system: esterase Fes; test: Fes-catalyzed hydrolysis of siderophores; assay type: biochemical; settings: Fes from Shigella flexneri, 64 μM substrates, 72 nM enzymes, HPLC
[3] = system: B. subtilis HB5600 (dhbA∷spc); test: Disc diffusion growth promotion assay, HB5600; assay type: cell-based; settings: in the presence of 2,2′-dipyridyl
[4] = system: esterase BesA; test: BesA-catalyzed hydrolysis of ferric complexes followed by UV-Vis spectroscopy; assay type: biochemical, B. cereus ATCC 14579; settings: 100 μM substrate, 1 μM enzyme, 75 mM HEPES pH 7.5, UV-Vis over 12 h
[5] = molecular target: substrate-binding protein FeuA (Bacillus subtilis, UniProt P40409); test: Fluorescence quenching binding assay with FeuA-His6; parameters: species or system B. subtilis 168
Chain of substrate-binding protein FeuA (P40409 21-317): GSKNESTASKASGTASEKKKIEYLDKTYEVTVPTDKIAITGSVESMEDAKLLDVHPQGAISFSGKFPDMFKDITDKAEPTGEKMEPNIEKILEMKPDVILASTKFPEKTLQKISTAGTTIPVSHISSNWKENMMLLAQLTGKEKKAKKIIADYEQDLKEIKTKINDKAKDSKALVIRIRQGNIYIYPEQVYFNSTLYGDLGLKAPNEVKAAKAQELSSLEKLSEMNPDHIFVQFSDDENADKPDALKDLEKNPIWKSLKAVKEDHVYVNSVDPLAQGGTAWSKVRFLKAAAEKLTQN

[6] = system: B. subtilis ATCC 6051; settings: cited from earlier work
[7] = system: esterase Fes; settings: cited from earlier work
[8] = system: B. subtilis ATCC 6051; test: 55Fe-siderophore transport assay; assay type: cell-based; settings: 37 °C, iron-limited medium
[9] = Strong acid hydrolysis followed by HPLC; assay type: physicochemical; settings: 1 mg/mL, 6 M HCl, stirred 12 h (overnight)
[10] = system: B. subtilis HB5625 (feuA∷spc dhbA∷mls); test: Disc diffusion growth promotion assay, HB5625; assay type: cell-based; settings: in the presence of 2,2′-dipyridyl
[11] = cited from earlier work; for log β110: [FeL]^3-; for pM(Fe^III): pH 7.4, 1 μM total iron, 10 μM total ligand
[12] = cited from earlier work; for log K3: [LH2]^4-; for log K4: [LH3]^3-; for log K5: [LH4]^2-; for log K6: [LH5]^-; for log K2: [LH]^5-; for log K1: [L]^6-; for Σlog K1-6: sum of the stepwise protonation constants
[13] = assay type: physicochemical
[14] = Potentiometric titration, ligand protonation constants; assay type: physicochemical
[15] = system: E. coli; settings: incorporated through FepA; cited from earlier work

SMILES: O=C(CNC(=O)c1cccc(O)c1O)N[C@@H]1COC(=O)[C@H](NC(=O)CNC(=O)c2cccc(O)c2O)COC(=O)[C@H](NC(=O)CNC(=O)c2cccc(O)c2O)COC1=O [D-SGC, N,N′,N″-Tris[2,3-dihydroxybenzoyl-glycinyl]cyclotri-D-seryl trilactone]
- hydrolysis of the apo siderophore by BesA [1]: no effect; also recorded: did not affect
- hydrolysis by Fes [2]: did not react
- growth promotion of B. subtilis HB5600 (in words) [3]: no significant zone of growth stimulation

SMILES: C[C@H]1OC(=O)[C@@H](NC(=O)CNC(=O)c2cccc([O-])c2[O-])[C@@H](C)OC(=O)[C@@H](NC(=O)CNC(=O)c2cccc([O-])c2[O-])[C@@H](C)OC(=O)[C@H]1NC(=O)CNC(=O)c1cccc([O-])c1[O-].[Fe+3] [[Fe^III(BB)]^3-]
- reaction of the ferric complex with BesA [4]: the UV-Vis spectra changed
- Kd [5]: 15 nM

SMILES: O=C(N[C@@H]1COC(=O)[C@H](NC(=O)c2cccc(O)c2O)COC(=O)[C@H](NC(=O)c2cccc(O)c2O)COC1=O)c1cccc(O)c1O (single isomer, unassigned; ent d) [D-Ent, D-enterobactin]
- hydrolysis of the apo siderophore by BesA [1]: no effect; also recorded: did not affect
- transport properties in B. subtilis [6]: same transport properties as Ent
- hydrolysis by Fes [7]: neither apo-D-Ent nor [Fe^III(D-Ent)]^3- are hydrolyzed by Fes
- growth promotion of B. subtilis HB5600 (in words) [3]: no significant zone of growth stimulation

SMILES: O=C(N[C@H]1COC(=O)[C@@H](NC(=O)c2cccc([O-])c2[O-])COC(=O)[C@@H](NC(=O)c2cccc([O-])c2[O-])COC1=O)c1cccc([O-])c1[O-].[Fe+3] [[Fe^III(Ent)]^3-]
- hydrolysis by Fes [7]: subject to enzymatic sequential hydrolysis
- reaction of the ferric complex with BesA [4]: the UV-Vis spectra changed
- Kd [5]: 19 nM

SMILES: O=C(CNC(=O)c1cccc([O-])c1[O-])N[C@H]1COC(=O)[C@@H](NC(=O)CNC(=O)c2cccc([O-])c2[O-])COC(=O)[C@@H](NC(=O)CNC(=O)c2cccc([O-])c2[O-])COC1=O.[Fe+3] [[Fe^III(SGC)]^3-]
- reaction of the ferric complex with BesA [4]: the UV-Vis spectra changed
- Kd [5]: 52 nM
- iron transport into B. subtilis [8]: transported into B. subtilis at levels similar to that of [Fe^III(BB)]^3-

SMILES: C[C@H]1OC(=O)[C@@H](NC(=O)CNC(=O)c2cccc(O)c2O)[C@@H](C)OC(=O)[C@@H](NC(=O)CNC(=O)c2cccc(O)c2O)[C@@H](C)OC(=O)[C@H]1NC(=O)CNC(=O)c1cccc(O)c1O [BB, bacillibactin]
- hydrolysis of the apo siderophore by BesA [1]: hydrolyzed sequentially
- resistance to acid hydrolysis [9]: remained essentially intact
- growth stimulation of B. subtilis HB5625, feuA deleted (in words) [10]: prevented growth stimulation
- hydrolysis by Fes [2]: did not react
- log β110 [11]: 47.6
- pM(Fe^III) [11]: 33.1
- log K3 [12]: 12.1
- log K4 [12]: 8.43
- log K5 [12]: 7.43
- log K6 [12]: 6.77
- log K2 [12]: 12.1
- log K1 [12]: 12.1
- Σlog K1-6 [12]: 58.93
- growth promotion of B. subtilis HB5600 (in words) [3]: promoted growth

SMILES: O=C(CNC(=O)c1cccc(O)c1O)N[C@H]1COC(=O)[C@@H](NC(=O)CNC(=O)c2cccc(O)c2O)COC(=O)[C@@H](NC(=O)CNC(=O)c2cccc(O)c2O)COC1=O [SGC, SERglyCAM]
- hydrolysis of the apo siderophore by BesA [1]: hydrolyzed sequentially
- growth stimulation of B. subtilis HB5625, feuA deleted (in words) [10]: prevented growth stimulation
- log β110 ([13]; [FeL]^3-, competition with EDTA, 0.1 M KCl, 25 °C, pH 5 to 7.5): 44.1(2)
- pM(Fe^III) ([13]; pH 7.4, 1 μM total iron, 10 μM total ligand): 29.6
- log K4 ([14]; [LH3]^3-, 0.1 M KCl, 25 °C): 8.37(3)
- log K5 ([14]; [LH4]^2-, 0.1 M KCl, 25 °C): 7.54(2)
- log K6 ([14]; [LH5]^-, 0.1 M KCl, 25 °C): 6.68(3)
- Σlog K1-6 ([14]; sum of the stepwise protonation constants): 58.89
- growth promotion of B. subtilis HB5600 (in words) [3]: promoted growth

SMILES: O=C(N[C@@H]1COC(=O)[C@H](NC(=O)c2cccc([O-])c2[O-])COC(=O)[C@H](NC(=O)c2cccc([O-])c2[O-])COC1=O)c1cccc([O-])c1[O-].[Fe+3] [[Fe^III(D-Ent)]^3-]
- hydrolysis by Fes [7]: neither apo-D-Ent nor [Fe^III(D-Ent)]^3- are hydrolyzed by Fes
- reaction of the ferric complex with BesA [4]: No change in the absorption spectra
- Kd [5]: 10 nM
- growth promotion of E. coli [15]: does not promote growth

SMILES: O=C(N[C@H]1COC(=O)[C@@H](NC(=O)c2cccc(O)c2O)COC(=O)[C@@H](NC(=O)c2cccc(O)c2O)COC1=O)c1cccc(O)c1O [Ent, Enterobactin]
- hydrolysis of the apo siderophore by BesA [1]: hydrolyzed sequentially
- resistance to acid hydrolysis [9]: completely degraded
- growth stimulation of B. subtilis HB5625, feuA deleted (in words) [10]: prevented growth stimulation
- hydrolysis by Fes [7]: subject to enzymatic sequential hydrolysis
- log β110 [11]: 49
- pM(Fe^III) [11]: 34.3
- log K3 [12]: 12.1
- log K4 [12]: 8.6
- log K5 [12]: 7.5
- log K6 [12]: 6.0
- log K2 [12]: 12.1
- log K1 [12]: 12.1
- Σlog K1-6 [12]: 58.4
- growth promotion of B. subtilis HB5600 (in words) [3]: promoted growth

Reference: PMC2782669 (Journal of the American Chemical Society, 2009)
